According to patent US6355799B1, “Substituted benzene compounds, process for their preparation, and herbicidal and defoliant compositions containing them” (ISK Americas Incorporated, priority 1997, dated 2002):

Columns and labels:
Type in all cases: in vivo
[1] = test system: upland rice (Oryza sp., var. Tebonnet, RICE); assay: Post-emerge test, crop safety; details: post-emerge, 14 days after application, rating scale 0-100
How it was run: (§1)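 Each test used a mechanized track sprayer delivering 187 l/ha of acetone solution at 15–1000 g ai/ha. Post-emerge foliage at 2–3 leaves was treated with added 0.25% v/v non-ionic surfactant and bottom-watered only. Injury was assessed on day 14, where 100 means total kill.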

[2] = test system: field corn (Zea mays L., var. Dekalb 535, CORN); assay: Post-emerge test, crop safety; details: post-emerge, 14 days after application, rating scale 0-100
How it was run: as §1

[3] = test system: green foxtail (Setaria viridis, SETVI); assay: Pre-emerge test, greenhouse herbicide activity screening; details: for Pre-emerge Herbicidal Activity SETVI: phytotoxicity rating 0-100, 14 days after application; for phytotoxicity rating SETVI: pre-emerge, 14 days after application, rating scale 0-100
How it was run: (§2)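 Plants grown in 10 cm pots of sandy loam mix received acetone-dissolved compounds through a moving flat-fan nozzle. Doses ranged from 15 to 1000 g ai/ha. Pre-emerge pots were seeded one day earlier, post-emerge pots 8–21 days earlier. Fourteen days on, each pot was graded 0–100 for damage.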

[4] = test system: sicklepod (Cassia obtusifolia, CASOB); assay: as above; details: for Pre-emerge Herbicidal Activity CASOB: phytotoxicity rating 0-100, 14 days after application; for phytotoxicity rating CASOB: pre-emerge, 14 days after application, rating scale 0-100
How it was run: as §2

[5] = test system: velvetleaf (Abutilon theophrasti, ABUTH); assay: as above; details: for Pre-emerge Herbicidal Activity ABUTH: phytotoxicity rating 0-100, 14 days after application; for phytotoxicity rating ABUTH: pre-emerge, 14 days after application, rating scale 0-100
How it was run: as §2

[6] = test system: lambsquarters (Chenopodium album, CHEAL); assay: as above; details: for Pre-emerge Herbicidal Activity CHEAL: phytotoxicity rating 0-100, 14 days after application; for phytotoxicity rating CHEAL: pre-emerge, 14 days after application, rating scale 0-100
How it was run: as §2

[7] = test system: johnsongrass (Sorghum halepense, SORHA); assay: as above; details: for Pre-emerge Herbicidal Activity SORHA: phytotoxicity rating 0-100, 14 days after application; for phytotoxicity rating SORHA: pre-emerge, 14 days after application, rating scale 0-100
How it was run: as §2

[8] = test system: barnyardgrass (Echinochloa crus-galli, ECHCG); assay: as above; details: for Pre-emerge Herbicidal Activity ECHCG: phytotoxicity rating 0-100, 14 days after application; for phytotoxicity rating ECHCG: pre-emerge, 14 days after application, rating scale 0-100
How it was run: as §2

[9] = test system: ivyleaf morningglory (Ipomoea hederacea, IPOHE); assay: as above; details: for Pre-emerge Herbicidal Activity IPOHE: phytotoxicity rating 0-100, 14 days after application; for phytotoxicity rating IPOHE: pre-emerge, 14 days after application, rating scale 0-100
How it was run: as §2

[10] = test system: large crabgrass (Digitaria sanguinalis, DIGSA); assay: as above; details: for Pre-emerge Herbicidal Activity DIGSA: phytotoxicity rating 0-100, 14 days after application; for phytotoxicity rating DIGSA: pre-emerge, 14 days after application, rating scale 0-100
How it was run: as §2

[11] = test system: upland rice (Oryza sp., var. Tebonnet, RICE); assay: Pre-emerge test, crop safety; details: for Pre-emerge Herbicidal Activity RICE: crop damage rating 0-100, 14 days after application; for phytotoxicity rating RICE: pre-emerge, 14 days after application, rating scale 0-100
How it was run: (§3)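 Sandy loam pots; pre-emerge: sown 1 d pre-spray, surface-watered after, then bottom-watered. Post-emerge: sown 8–21 d before, 2–3 leaf stage, + 0.25% v/v NIS, bottom-watered. Acetone, 187 l/ha track spray, 15–1000 g ai/ha. 0–100 injury score, day 14.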

[12] = test system: field corn (Zea mays L., var. Dekalb 535, CORN); assay: Pre-emerge test, crop safety; details: for Pre-emerge Herbicidal Activity CORN: crop damage rating 0-100, 14 days after application; for phytotoxicity rating CORN: pre-emerge, 14 days after application, rating scale 0-100
How it was run: as §3

[13] = test system: redroot pigweed (Amaranthus retroflexus, AMARE); assay: Post-emerge test, greenhouse herbicide activity screening; details: post-emerge, 14 days after application
How it was run: (§4)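 Applied at 15–1000 g ai/ha from acetone in 187 l/ha spray volume. Post-emergence applications included 0.25% v/v non-ionic surfactant and reached plants sown 8–21 days before. Pre-emergence applications were incorporated by surface watering. Efficacy or crop damage was rated on a 0–100 scale after 14 days.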

[14] = test system: green foxtail (Setaria viridis, SETVI); assay: as above; details: post-emerge, 14 days after application, rating scale 0-100
How it was run: as §4

[15] = test system: sicklepod (Cassia obtusifolia, CASOB); assay: as above; details: post-emerge, 14 days after application, rating scale 0-100
How it was run: as §4

[16] = test system: velvetleaf (Abutilon theophrasti, ABUTH); assay: as above; details: post-emerge, 14 days after application, rating scale 0-100
How it was run: as §4

[17] = test system: lambsquarters (Chenopodium album, CHEAL); assay: as above; details: post-emerge, 14 days after application, rating scale 0-100
How it was run: as §4

[18] = test system: barnyardgrass (Echinochloa crus-galli, ECHCG); assay: as above; details: post-emerge, 14 days after application, rating scale 0-100
How it was run: as §4

[19] = test system: ivyleaf morningglory (Ipomoea hederacea, IPOHE); assay: as above; details: post-emerge, 14 days after application, rating scale 0-100
How it was run: as §4

[20] = test system: large crabgrass (Digitaria sanguinalis, DIGSA); assay: as above; details: post-emerge, 14 days after application, rating scale 0-100
How it was run: as §4

[21] = test system: redroot pigweed (Amaranthus retroflexus, AMARE); assay: Pre-emerge test, greenhouse herbicide activity screening; details: for Pre-emerge Herbicidal Activity AMARE: phytotoxicity rating 0-100, 14 days after application; for phytotoxicity rating AMARE: pre-emerge, 14 days after application, rating scale 0-100
How it was run: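 Visual ratings on a 0-100 scale (0 no damage, 100 all plants dead) were taken at 14 days after treatment. Rates of 15-1000 g ai/ha in acetone, 187 l/ha, were sprayed onto soil one day after planting (pre-emerge) or onto 2-3 leaf plants with 0.25% v/v surfactant (post-emerge).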

[22] = 63 g ai/ha, rating scale 0-100 (0 no damage, 100 complete death)
[23] = 250 g ai/ha, rating scale 0-100

COc1c(Cl)cc(F)c(-n2c(=O)cc(C(F)(F)F)n(C)c2=O)c1NC(=O)OC(c1ccccc1)C1CC1 (stereo not drawn) [4-46]
phytotoxicity rating RICE (crop damage) ([1]; 63 g ai/ha): 10
phytotoxicity rating RICE (crop damage) ([1]; 250 g ai/ha): 70
phytotoxicity rating CORN (crop damage) ([2]; 63 g ai/ha): 10
phytotoxicity rating CORN (crop damage) ([2]; 250 g ai/ha): 80
Pre-emerge Herbicidal Activity SETVI ([3]; 63 g ai/ha): 40
Pre-emerge Herbicidal Activity SETVI ([3]; 250 g ai/ha): 100
Pre-emerge Herbicidal Activity CASOB ([4]; 63 g ai/ha): 30
Pre-emerge Herbicidal Activity CASOB ([4]; 250 g ai/ha): 40
Pre-emerge Herbicidal Activity ABUTH ([5]; 63 g ai/ha): 50
Pre-emerge Herbicidal Activity ABUTH ([5]; 250 g ai/ha): 100
Pre-emerge Herbicidal Activity CHEAL ([6]; 63 g ai/ha): 100
Pre-emerge Herbicidal Activity CHEAL ([6]; 250 g ai/ha): 100
Pre-emerge Herbicidal Activity SORHA ([7]; 63 g ai/ha): 20
Pre-emerge Herbicidal Activity SORHA ([7]; 250 g ai/ha): 60
Pre-emerge Herbicidal Activity ECHCG ([8]; 63 g ai/ha): 20
Pre-emerge Herbicidal Activity ECHCG ([8]; 250 g ai/ha): 60
Pre-emerge Herbicidal Activity IPOHE ([9]; 63 g ai/ha): 10
Pre-emerge Herbicidal Activity IPOHE ([9]; 250 g ai/ha): 85
Pre-emerge Herbicidal Activity DIGSA ([10]; 63 g ai/ha): 70
Pre-emerge Herbicidal Activity DIGSA ([10]; 250 g ai/ha): 95
Pre-emerge Herbicidal Activity RICE ([11]; 63 g ai/ha): 10
Pre-emerge Herbicidal Activity RICE ([11]; 250 g ai/ha): 50
Pre-emerge Herbicidal Activity CORN ([12]; 63 g ai/ha): 0
Pre-emerge Herbicidal Activity CORN ([12]; 250 g ai/ha): 5
phytotoxicity rating AMARE [13, 22]: 100
phytotoxicity rating AMARE [13, 23]: 100
phytotoxicity rating SETVI ([14]; 63 g ai/ha): 10
phytotoxicity rating SETVI ([14]; 250 g ai/ha): 10
phytotoxicity rating CASOB ([15]; 63 g ai/ha): 80
phytotoxicity rating CASOB ([15]; 250 g ai/ha): 95
phytotoxicity rating ABUTH ([16]; 63 g ai/ha): 95
phytotoxicity rating ABUTH ([16]; 250 g ai/ha): 90
phytotoxicity rating CHEAL ([17]; 63 g ai/ha): 90
phytotoxicity rating CHEAL ([17]; 250 g ai/ha): 100
phytotoxicity rating ECHCG ([18]; 63 g ai/ha): 20
phytotoxicity rating ECHCG ([18]; 250 g ai/ha): 30
phytotoxicity rating IPOHE ([19]; 63 g ai/ha): 100
phytotoxicity rating IPOHE ([19]; 250 g ai/ha): 90
phytotoxicity rating DIGSA ([20]; 63 g ai/ha): 0
phytotoxicity rating DIGSA ([20]; 250 g ai/ha): 20
Pre-emerge Herbicidal Activity AMARE ([21]; 63 g ai/ha): 80
Pre-emerge Herbicidal Activity AMARE ([21]; 250 g ai/ha): 100

COc1c(Cl)cc(F)c(-n2c(=O)cc(C(F)(F)F)n(C)c2=O)c1NNC(=O)Oc1ccccc1 [15-7]
Post-emerge Herbicidal Activity RICE (crop damage rating) ([1]; 63 g ai/ha): 50
Post-emerge Herbicidal Activity RICE (crop damage rating) ([1]; 250 g ai/ha): 90
Post-emerge Herbicidal Activity CORN (crop damage rating) ([2]; 63 g ai/ha): 60
Post-emerge Herbicidal Activity CORN (crop damage rating) ([2]; 250 g ai/ha): 80
phytotoxicity rating SETVI ([3]; 63 g ai/ha): 100
phytotoxicity rating SETVI ([3]; 250 g ai/ha): 100
phytotoxicity rating CASOB ([4]; 63 g ai/ha): 100
phytotoxicity rating CASOB ([4]; 250 g ai/ha): 100
phytotoxicity rating ABUTH ([5]; 63 g ai/ha): 100
phytotoxicity rating ABUTH ([5]; 250 g ai/ha): 100
phytotoxicity rating CHEAL ([6]; 63 g ai/ha): 100
phytotoxicity rating CHEAL ([6]; 250 g ai/ha): 100
phytotoxicity rating SORHA ([7]; 63 g ai/ha): 95
phytotoxicity rating SORHA ([7]; 250 g ai/ha): 100
phytotoxicity rating ECHCG ([8]; 63 g ai/ha): 80
phytotoxicity rating ECHCG ([8]; 250 g ai/ha): 100
phytotoxicity rating IPOHE ([9]; 63 g ai/ha): 95
phytotoxicity rating IPOHE ([9]; 250 g ai/ha): 100
phytotoxicity rating DIGSA ([10]; 63 g ai/ha): 90
phytotoxicity rating DIGSA ([10]; 250 g ai/ha): 100
phytotoxicity rating RICE ([11]; 63 g ai/ha): 90
phytotoxicity rating RICE ([11]; 250 g ai/ha): 100
phytotoxicity rating CORN ([12]; 63 g ai/ha): 85
phytotoxicity rating CORN ([12]; 250 g ai/ha): 100
Post-emerge Herbicidal Activity AMARE (phytotoxicity rating) [13, 22]: 100
Post-emerge Herbicidal Activity AMARE (phytotoxicity rating) [13, 23]: 100
Post-emerge Herbicidal Activity SETVI (phytotoxicity rating) ([14]; 63 g ai/ha): 30
Post-emerge Herbicidal Activity SETVI (phytotoxicity rating) ([14]; 250 g ai/ha): 90
Post-emerge Herbicidal Activity CASOB (phytotoxicity rating) ([15]; 63 g ai/ha): 60
Post-emerge Herbicidal Activity CASOB (phytotoxicity rating) ([15]; 250 g ai/ha): 100
Post-emerge Herbicidal Activity ABUTH (phytotoxicity rating) ([16]; 63 g ai/ha): 100
Post-emerge Herbicidal Activity ABUTH (phytotoxicity rating) ([16]; 250 g ai/ha): 100
Post-emerge Herbicidal Activity CHEAL (phytotoxicity rating) ([17]; 63 g ai/ha): 100
Post-emerge Herbicidal Activity CHEAL (phytotoxicity rating) ([17]; 250 g ai/ha): 100
Post-emerge Herbicidal Activity ECHCG (phytotoxicity rating) ([18]; 63 g ai/ha): 40
Post-emerge Herbicidal Activity ECHCG (phytotoxicity rating) ([18]; 250 g ai/ha): 95
Post-emerge Herbicidal Activity IPOHE (phytotoxicity rating) ([19]; 63 g ai/ha): 100
Post-emerge Herbicidal Activity IPOHE (phytotoxicity rating) ([19]; 250 g ai/ha): 100
Post-emerge Herbicidal Activity DIGSA (phytotoxicity rating) ([20]; 63 g ai/ha): 20
Post-emerge Herbicidal Activity DIGSA (phytotoxicity rating) ([20]; 250 g ai/ha): 75
phytotoxicity rating AMARE ([21]; 63 g ai/ha): 100
phytotoxicity rating AMARE ([21]; 250 g ai/ha): 100
